Where two headings read alike, the source gives them in different places.
Key:
full-length HAQ STING = target: T1, full-length HAQ STING (Homo sapiens, UniProt Q86WV6, G230A/H232R/R293Q/R71H); experiment: 3H-cGAMP filtration binding assay (HAQ STING); conditions: competition with tritiated cGAMP ligand; T. ni cell membranes overexpressing full-length HAQ STING
T1 construct: made in house; host or cells: Trichoplusia ni (Hi-Five) insect cells, baculovirus generated in Sf21; crude membranes
Source text: The ability of compounds to bind STING is quantified by the ability to compete with tritiated cGAMP ligand for human STING receptor membrane using a radioactive filter-binding assay. The binding assay employs STING receptor obtained from Hi-Five cell membranes overexpressing full-length HAQ STING prepared in-house and tritiated cGAMP ligand also purified in-house.
The ability of compounds to bind STING is quantified by their ability to compete with tritiated cGAMP ligand for human STING receptor membrane using a radioactive filter-binding assay. The binding assay employs STING receptor obtained from Trichoplusia ni cell membranes (T. ni; Expression Systems, cat #94-002F, www.expressionsystems.com) overexpressing full-length HAQ STING and tritiated cGAMP ligand.
The basic HAQ STING filtration assay protocol is as follows:
The compounds were serially titrated by the Hamilton STARPlus CORE in a 96-well plate (Greiner, #651201) using a 1:3 ten-point dose response format. […] 148 uL of prepared membrane was then manually added to each well of a 96-well deep-well polypropylene plate (Fisher Scientific, #12-566-121). Following membrane addition, 2 uL of either titrated test compound, DMSO control (Sigma #276855), or cold cGAMP control was added to the appropriate wells using a BIOMEK FX. Compound and membrane then preincubated for 60 min at RT to allow compound binding to equilibrate. Following equilibration, 8 nM of [^3H] c-GAMP ligand was prepared by diluting into assay buffer, and 50 uL of this working stock was then manually added to each well of the assay plate. Plates were then incubated at RT for 60 min, and the contents of each assay plate were then filtered through a 96-well GF/B filter plate (PerkinElmer, #6005250) using a TOMTEC MACH III Cell Harvester equipped with 20 mM HEPES buffer (Fisher Scientific, #BP299500). The filter plates were then dried at 55° C. for 30 min using a pressurized oven before 30 uL of ULTIMA GOLD F scintillate was added to each well. Tritium levels for each reaction well were then measured using a PerkinElmer TopCount plate reader.
After normalization to controls, the percent activity for each compound concentration was calculated by measuring the amount of remaining radioactivity. The plot of percent activity versus the log of compound concentration was fit with a 4-parameter dose response equation to calculate EC50 values.

[1] = test system: IFN-β secretion from THP1 cells; experiment: IFN-β secretion in THP1 cell culture (5 h); format: cell-based, human; conditions: for activation at 30 µM: Homo sapiens, THP1 cells, 5 h incubation, compound at 30 μM, 30 uM cGAMP = 100%, read-out: % Effect at 30 μM relative to 2′3′-cGAMP
Protocol: The ability of compounds to stimulate the secretion of interferon-beta from THP1 cells was measured using a human IFN-β AlphaLISA kit (Perkin Elmer, Cat. No. AL265F). The basic protocol is as follows:
The cell viability and count was ascertained using a Beckman Coulter V-Cell XR cell counter. The cell suspension was centrifuged at 200×g for 5 min at RT. Cells were resuspended to a density of 0.8×10^6/mL in 37° C. assay medium. Subsequent liquid transfers were performed using either a Matrix electronic multichannel pipette or an Agilent Bravo Automated Liquid Handling Platform.
The assay was started by dispensing 40 μL of the previously prepared cell suspension into the wells of the plate containing compounds. After 5 h incubation at 37° C., 5% CO2 in a humidified atmosphere, the plate of cells and compounds was centrifuged at 200×g for 5 min at RT. […] To these supernatant-containing wells was added 10 μL of 5× Anti-Analyte Acceptor beads (50 μg/mL of AlphaLISA HiBlock Buffer) and incubated for 30 min at RT while shaking on an orbital plate shaker. To each well was added 10 μL of 5× Biotinylated Antibody Anti-analyte (5 nM in AlphaLISA HiBlock Buffer) and incubated on an orbital plate shaker for 60 min at RT or overnight at 4° C. To each well was added 25 μL of 2× SA-Donor beads (80 μg/mL in AlphaLISA HiBlock Buffer) and incubated for 30-45 min at RT in the dark while shaking on an orbital plate shaker. The plate was then read on a Perkin Elmer Envision (λex680 nm, λem=570 nm). The percent effect of the AlphaLISA signal at each compound concentration was calculated based on 30 uM cGAMP positive controls and 0.3% DMSO negative controls. The plot of percent effect versus the log of compound concentration was fit with a 4-parameter concentration response equation to calculate EC50 values.
Compounds of the disclosure were evaluated for IFN-β secretion in THP1 cell culture as described above.

T1 sequence (Q86WV6 with tags, fused parts or gaps R71H/G230A/H232R/R293Q): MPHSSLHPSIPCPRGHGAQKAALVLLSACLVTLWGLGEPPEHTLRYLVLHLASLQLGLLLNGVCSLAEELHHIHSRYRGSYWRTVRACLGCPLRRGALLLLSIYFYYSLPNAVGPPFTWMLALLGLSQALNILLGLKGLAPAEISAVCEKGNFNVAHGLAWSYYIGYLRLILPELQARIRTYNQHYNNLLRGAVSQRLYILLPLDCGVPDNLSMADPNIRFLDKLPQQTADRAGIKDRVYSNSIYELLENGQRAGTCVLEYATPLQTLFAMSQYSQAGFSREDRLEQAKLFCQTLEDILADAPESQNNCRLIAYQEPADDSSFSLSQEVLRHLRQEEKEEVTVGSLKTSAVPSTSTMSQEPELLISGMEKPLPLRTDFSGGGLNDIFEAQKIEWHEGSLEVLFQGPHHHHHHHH

| SMILES | EC50 (full-length HAQ STING) [nM] | activation at 30 µM ([1]; THP-1, 5 h) [%] | activation at 30 µM ([1]; THP-1) [%] | % Effect at 30 μM relative to 2′3′-cGAMP [1] [%] |
| --- | --- | --- | --- | --- |
| Nc1ncnc2c1ncn2[C@@H]1S[C@@H]2COP(=O)(S)OC3[C@H](n4cnc5c(=O)n6cc[nH]c6nc54)O[C@H](COP(=O)(S)OC2C1O)[C@H]3F (stereo in doubt) [Example 17, 3-[(5R,7R,8R,12aR,14R,15S,15aR,16R)-14-(6-amino-9H-purin-9-yl)-16-fluoro-15-hydroxy-2,10-dioxido-2,10-disulfanyloctahydro-12H-5,8-methanothieno[3,2-l][1,3,6,9,11,2,10]pentaoxadiphosphacyclotetradecin-7-yl]-3,5-dihydro-9H-imidazo[1,2-a]purin-9-one] | 3 | 122 | – | – |
| Nc1ncnc2c1ncn2[C@@H]1O[C@@]23CO[C@@H]1[C@@H]2OP(=O)(S)OC[C@H]1O[C@@H](n2ccc(=O)n4ccnc24)[C@H](OP(=O)(S)OC3)[C@@H]1O (stereo partly drawn) [Example 6, 8-[(5R,7R,8R,12aR,14R,15R,15aS,18R)-14-(6-amino-9H-purin-9-yl)-18-hydroxy-2,10-dioxido-2,10-disulfanylhexahydro-14H-15,12a-(epoxymethano)-5,8-methanofuro[3,2-l] [1,3,6,9,11,2,10]pentaoxadiphosphacyclotetradecin-7(12H)-yl]imidazo[1,2-a]pyrimidin-5(8H)-one] | 28 | 145 | – | – |
| Nc1ncnn2c([C@H]3C[C@@H]4O[P@@](=O)(S)OC[C@H]5O[C@@H](n6ccc(=O)n7ccnc67)[C@H](O[P@](=O)(S)OC[C@H]4O3)[C@@H]5O)cnc12 [Example 7, 8-[(2S,5R,7R,8R,10R,12aR,14R,15aS,16R)-14-(4-aminoimidazo[2,1-f][1,2,4]triazin-7-yl)-16-hydroxy-2,10-dioxido-2,10-disulfanyl-octahydro-12H-5,8-methanofuro[3,2-l][1,3,6,9,11,2,10]pentaoxadiphosphacyclotetradecin-7-yl]imidazo [1,2-a]pyrimidin-5(8H)-one] | 2 | 140 | – | – |
| Nc1ccnc2c1nnn2[C@H]1C[C@@H]2OP(=O)(S)OC[C@H]3O[C@@H](n4ccc(=O)n5ccnc45)[C@H](OP(=O)(S)OC[C@H]2O1)[C@@H]3O (stereo partly drawn) [Example 18, 8-[(5R,7R,8R,12aR,14R,15aS,16R)-14-(7-amino-3H-[1,2,3]triazolo[4,5-b]pyridin-3-yl)-16-hydroxy-2,10-dioxido-2,10-disulfanyloctahydro-12H-5,8-methanofuro[3,2-l][1,3,6,9,11,2,10]pentaoxadiphosphacyclotetradecin-7-yl]imidazo[1,2-a]pyrimidin-5(8H)-one] | 126 | 124 | – | – |
| Nc1ncnc2c1nnn2[C@@H]1O[C@@H]2COP(=O)(S)O[C@@H]3C[C@@H](COP(=O)(S)O[C@H]2[C@@H]1F)O[C@H]3n1cnc2c(=O)n3cc[nH]c3nc21 (stereo partly drawn) [Example 28, 3-[(5S,7R,8R,12aR,14R,15S,15aR)-14-(7-amino-3H-[1,2,3]triazolo[4,5-d]pyrimidin-3-yl)-15-fluoro-2,10-dioxido-2,10-disulfanyloctahydro-12H-5,8-methanofuro[3,2-l] [1,3,6,9,11,2,10]pentaoxadiphosphacyclotetradecin-7-yl]-3,5-dihydro-9H-imidazo[1,2-a]purin-9-one] | 41 | 143 | – | – |
| O=c1ccn([C@@H]2O[C@@H]3COP(=O)(S)O[C@@H]4[C@H](O)[C@@H](COP(=O)(S)O[C@H]3[C@H]2O)O[C@H]4n2ccc(=O)n3ccnc23)c2nccn12 (stereo partly drawn) [Example 30, 8,8′-[(5R,7R,8R,12aR,14R,15R,15aS,16R)-15,16-dihydroxy-2,10-dioxido-2,10-disulfanyloctahydro-12H-5,8-methanofuro[3,2-l][1,3,6,9,11,2,10]pentaoxadiphosphacyclo-tetradecine-7,14-diyl]bisimidazo[1,2-a]pyrimidin-5(8H)-one] | 37 | – | 127 | – |
| Nc1nc2c(ncn2[C@@H]2O[C@@H]3COP(=O)(S)O[C@H]4[C@@H](O)[C@H](n5ccc(=O)n6ccnc56)O[C@@H]4COP(=O)(S)O[C@@H]2[C@@H]3F)c(=O)[nH]1 (stereo partly drawn) [Example 31, 2-amino-9-[(5R,7R,8S,12aR,14R,15R,15aS,16R)-16-fluoro-15-hydroxy-2,10-dioxido-14-(5-oxoimidazo [1,2-a]pyrimidin-8(5H)-yl)-2,10-disulfanyloctahydro-12H-5,8-methanofuro[3,2-l][1,3,6,9,11,2,10]pentaoxadiphosphacyclotetradecin-7-yl]-1,9-dihydro-6H-purin-6-one] | 16 | 28 | – | – |
| Nc1ccnc2c1ccn2[C@H]1C[C@@H]2OP(=O)(S)OC[C@H]3O[C@@H](n4ccc(=O)n5ccnc45)[C@H](OP(=O)(S)OC[C@H]2O1)[C@@H]3O (stereo partly drawn) [Example 34, 8-[(5R,7R,8R,12aR,14R,15aS,16R)-14-(4-amino-1H-pyrrolo[2,3-b]pyridin-1-yl)-16-hydroxy-2,10-dioxido-2,10-disulfanyloctahydro-12H-5,8-methanofuro[3,2-l][1,3,6,9,11,2,10]pentaoxadiphosphacyclotetradecin-7-yl]imidazo[1,2-a]pyrimidin-5(8H)-one] | 1120 | 157 | – | – |
| Nc1nc2c(ncn2[C@@H]2S[C@@H]3COP(=O)(S)O[C@H]4[C@H](F)[C@H](n5ccc6c(=O)[nH]cnc65)O[C@@H]4COP(=O)(S)O[C@@H]2C3)c(=O)[nH]1 (stereo partly drawn) [Example 44, 2-amino-9-[(5S,7R,8R,12aR,14R,15S,15aR)-15-fluoro-2,10-dioxido-14-(4-oxo-3,4-dihydro-7H-pyrrolo[2,3-d]pyrimidin-7-yl)-2,10-disulfanyl-octahydro-12H-5,8-methanofuro[3,2-l] [1,3,9,11,6,2,10]tetraoxathiadiphosphacyclotetradecin-7-yl]-1,9-dihydro-6H-purin-6-one] | 1 | 164 | – | – |
| Nc1cc2c(ncn2[C@@H]2O[C@@H]3COP(=O)(S)O[C@H]4[C@H](F)[C@H](n5ccc6c(=O)[nH]cnc65)O[C@@H]4COP(=O)(S)O[C@@H]2[C@@H]3F)c(=O)[nH]1 (stereo partly drawn) [Example 51, 6-amino-1-[(5R,7R,8S,12aR,14R,15S,15aR,16R)-15,16-difluoro-2,10-dioxido-14-(4-oxo-3,4-dihydro-7H-pyrrolo[2,3-d]pyrimidin-7-yl)-2,10-disulfanyl-octahydro-12H-5,8-methanofuro[3,2-l] [1,3,6,9,11,2,10]pentaoxadiphosphacyclotetradecin-7-yl]-1,5-dihydro-4H-imidazo[4,5-c]pyridin-4-one] | 13 | 113 | – | – |
| Nc1nc2c(ncn2[C@@H]2O[C@@H]3COP(=O)(O)O[C@H]4C[C@H](n5ccc6c(=O)[nH]cnc65)O[C@@H]4COP(=O)(S)O[C@@H]2C3)c(=O)[nH]1 (stereo partly drawn) [Example 54, 2-amino-9-[(5S,7R,8R,12aR,14R,15aS)-2-hydroxy-2,10-dioxido-14-(4-oxo-3,4-dihydro-7H-pyrrolo[2,3-d]pyrimidin-7-yl)-10-sulfanyloctahydro-12H-5,8-methanofuro[3,2-l][1,3,6,9,11,2,10]pentaoxadiphosphacyclotetradecin-7-yl]-1,9-dihydro-6H-purin-6-one] | 12 | – | – | 68 |

Source: patent publication US11685761B2, “Cyclic di-nucleotide compounds as sting agonists” (Merck Sharp & Dohme Corp., priority 2017, dated 2023)
